Read-outs that look alike come from different tables or passages of the source.
How the values were obtained:
5-HT2B = molecular target: T1, 5-HT2B (Homo sapiens, UniProt P41595); test: competitive radioligand binding, HEK293 membranes
T1 construct: gene HTR2B; full-length receptor; HEK293 cell membranes
Source text: competitive radioligand binding, HEK293 membranes on 5-HT2B

5-HT1A = molecular target: T2, 5-HT1A (Homo sapiens, UniProt P08908); test: TRUPATH BRET2 G protein dissociation, HEK293; type: cell-based; conditions: HBSS, […] HEPES pH […] °C; agonist mode
T2 construct: gene HTR1A; full-length receptor; HEK293 with TRUPATH sensors

M5 = molecular target: T3, M5 (Homo sapiens, UniProt P08912); test: TRUPATH BRET2 G protein dissociation, HEK293; type: cell-based; conditions: HBSS, […] HEPES pH […] °C; agonist mode
T3 construct: gene CHRM5; full-length receptor; HEK293 with TRUPATH sensors (function)
T3 sequence (P08912 1-532): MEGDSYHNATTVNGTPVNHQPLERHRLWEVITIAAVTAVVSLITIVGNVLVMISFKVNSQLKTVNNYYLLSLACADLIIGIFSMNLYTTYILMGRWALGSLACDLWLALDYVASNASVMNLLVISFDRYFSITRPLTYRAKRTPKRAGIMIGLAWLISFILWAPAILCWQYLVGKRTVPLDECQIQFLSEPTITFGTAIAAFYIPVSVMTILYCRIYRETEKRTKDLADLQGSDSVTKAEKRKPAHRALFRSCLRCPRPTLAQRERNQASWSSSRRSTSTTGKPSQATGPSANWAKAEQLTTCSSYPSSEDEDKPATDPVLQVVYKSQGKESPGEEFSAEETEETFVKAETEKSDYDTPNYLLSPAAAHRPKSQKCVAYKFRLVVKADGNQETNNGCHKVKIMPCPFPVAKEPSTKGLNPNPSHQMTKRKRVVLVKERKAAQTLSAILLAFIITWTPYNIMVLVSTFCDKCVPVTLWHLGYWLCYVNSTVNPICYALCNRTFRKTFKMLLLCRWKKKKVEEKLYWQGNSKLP

M1 = molecular target: T4, M1 (Homo sapiens, UniProt P11229); test: TRUPATH BRET2 G protein dissociation, HEK293; type: cell-based; conditions: HBSS, […] HEPES pH […] °C; agonist mode
T4 construct: gene CHRM1; full-length receptor; HEK293 with TRUPATH sensors (function)
T4 sequence (P11229 1-460): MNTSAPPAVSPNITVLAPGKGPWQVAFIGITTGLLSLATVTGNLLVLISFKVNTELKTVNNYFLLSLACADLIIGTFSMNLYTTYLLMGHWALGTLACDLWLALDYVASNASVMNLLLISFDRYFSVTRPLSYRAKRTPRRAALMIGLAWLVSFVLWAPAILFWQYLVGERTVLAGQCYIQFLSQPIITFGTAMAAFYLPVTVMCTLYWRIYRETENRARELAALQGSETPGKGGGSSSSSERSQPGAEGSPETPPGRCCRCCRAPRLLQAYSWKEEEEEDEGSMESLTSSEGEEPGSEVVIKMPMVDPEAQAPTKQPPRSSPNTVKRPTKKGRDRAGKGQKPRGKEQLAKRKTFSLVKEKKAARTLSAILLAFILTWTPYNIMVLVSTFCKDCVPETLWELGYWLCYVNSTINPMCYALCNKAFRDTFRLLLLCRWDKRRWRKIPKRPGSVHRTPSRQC

CHRM1 [1] = molecular target: T5, CHRM1 (Homo sapiens, UniProt P11229); test: cell-based; design: species or system HEK293; Fluo-4 Direct calcium mobilization on FLIPR-Tetra; conditions: Assay=Calcium, agonist mode, % of control agonist
T5 sequence (P11229 1-460): T4 sequence (P11229 1-460)

CHRM3 [2] = molecular target: T6, CHRM3 (Homo sapiens, UniProt P20309); test: cell-based; design: species or system HEK293; Fluo-4 Direct calcium mobilization on FLIPR-Tetra; conditions: Assay=Calcium, agonist mode, % of control agonist
CHRM5 [3] = molecular target: T7, CHRM5 (Homo sapiens, UniProt P08912); test: cell-based; design: species or system HEK293; Fluo-4 Direct calcium mobilization on FLIPR-Tetra; conditions: Assay=Calcium, agonist mode, % of control agonist
T7 sequence (P08912 1-532): T3 sequence (P08912 1-532)

CHRM1 [4] = molecular target: T5, CHRM1; test: cell-based; design: species or system HEK293; BRET1 beta-arrestin2 recruitment, receptor-RLuc8 and mVenus-beta-arrestin2 with GRK2; conditions: Assay=barr2, agonist mode, % of control agonist
Source text: (§1) BRET1 assays followed prior methods.

CHRM3 [5] = molecular target: T6, CHRM3; test: cell-based; design: species or system HEK293; BRET1 beta-arrestin2 recruitment, receptor-RLuc8 and mVenus-beta-arrestin2 with GRK2; conditions: Assay=barr2, agonist mode, % of control agonist
Source text: as §1

CHRM4 = molecular target: T8, CHRM4 (Homo sapiens, UniProt P08173); test: cell-based; design: species or system HEK293; BRET1 beta-arrestin2 recruitment, receptor-RLuc8 and mVenus-beta-arrestin2 with GRK2; conditions: Assay=barr2, agonist mode, % of control agonist
T8 sequence (P08173 1-479): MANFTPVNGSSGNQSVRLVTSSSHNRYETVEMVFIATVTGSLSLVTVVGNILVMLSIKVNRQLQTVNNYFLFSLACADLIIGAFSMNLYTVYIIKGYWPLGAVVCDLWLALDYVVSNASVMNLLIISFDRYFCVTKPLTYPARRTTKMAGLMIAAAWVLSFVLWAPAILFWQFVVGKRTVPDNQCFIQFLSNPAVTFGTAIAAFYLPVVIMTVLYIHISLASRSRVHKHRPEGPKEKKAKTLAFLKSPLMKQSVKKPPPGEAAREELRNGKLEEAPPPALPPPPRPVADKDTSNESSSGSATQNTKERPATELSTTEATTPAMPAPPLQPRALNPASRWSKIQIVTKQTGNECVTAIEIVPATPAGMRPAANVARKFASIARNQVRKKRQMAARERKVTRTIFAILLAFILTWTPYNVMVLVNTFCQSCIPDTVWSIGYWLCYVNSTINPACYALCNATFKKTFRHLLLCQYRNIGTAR
Source text: as §1

CHRM5 [6] = molecular target: T7, CHRM5; test: cell-based; design: species or system HEK293; BRET1 beta-arrestin2 recruitment, receptor-RLuc8 and mVenus-beta-arrestin2 with GRK2; conditions: Assay=barr2, agonist mode, % of control agonist
Source text: as §1

[7] = HEK293, read-out: N-Desmethyl Xanomeline

T6 sequence (P20309 whole entry): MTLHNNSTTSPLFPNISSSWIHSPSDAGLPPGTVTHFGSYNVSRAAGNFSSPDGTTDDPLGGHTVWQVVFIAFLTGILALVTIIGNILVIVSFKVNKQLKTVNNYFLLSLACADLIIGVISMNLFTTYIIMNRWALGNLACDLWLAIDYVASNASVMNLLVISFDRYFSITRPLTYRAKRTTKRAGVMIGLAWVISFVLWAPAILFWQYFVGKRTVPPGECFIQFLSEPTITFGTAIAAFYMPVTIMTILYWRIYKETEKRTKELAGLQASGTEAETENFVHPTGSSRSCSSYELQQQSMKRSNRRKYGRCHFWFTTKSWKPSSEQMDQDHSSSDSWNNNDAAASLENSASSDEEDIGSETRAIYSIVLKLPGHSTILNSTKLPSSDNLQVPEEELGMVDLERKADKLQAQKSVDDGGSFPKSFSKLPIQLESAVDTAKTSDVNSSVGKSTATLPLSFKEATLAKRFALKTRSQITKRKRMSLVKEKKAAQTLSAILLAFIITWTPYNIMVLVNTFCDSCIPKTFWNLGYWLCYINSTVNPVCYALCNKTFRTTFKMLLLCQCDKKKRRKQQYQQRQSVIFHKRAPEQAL
T2 sequence (P08908 whole entry): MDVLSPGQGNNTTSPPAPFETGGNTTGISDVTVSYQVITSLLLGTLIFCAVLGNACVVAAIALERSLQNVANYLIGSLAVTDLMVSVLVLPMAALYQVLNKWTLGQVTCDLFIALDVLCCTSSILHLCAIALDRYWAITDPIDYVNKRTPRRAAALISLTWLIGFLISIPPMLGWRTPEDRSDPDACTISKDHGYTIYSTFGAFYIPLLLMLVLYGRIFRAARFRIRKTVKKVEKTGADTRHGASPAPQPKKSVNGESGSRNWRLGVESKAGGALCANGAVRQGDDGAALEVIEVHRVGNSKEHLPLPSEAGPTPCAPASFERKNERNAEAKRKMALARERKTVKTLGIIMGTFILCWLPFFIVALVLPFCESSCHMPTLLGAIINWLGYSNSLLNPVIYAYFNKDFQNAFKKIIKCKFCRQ
T1 sequence (P41595 whole entry): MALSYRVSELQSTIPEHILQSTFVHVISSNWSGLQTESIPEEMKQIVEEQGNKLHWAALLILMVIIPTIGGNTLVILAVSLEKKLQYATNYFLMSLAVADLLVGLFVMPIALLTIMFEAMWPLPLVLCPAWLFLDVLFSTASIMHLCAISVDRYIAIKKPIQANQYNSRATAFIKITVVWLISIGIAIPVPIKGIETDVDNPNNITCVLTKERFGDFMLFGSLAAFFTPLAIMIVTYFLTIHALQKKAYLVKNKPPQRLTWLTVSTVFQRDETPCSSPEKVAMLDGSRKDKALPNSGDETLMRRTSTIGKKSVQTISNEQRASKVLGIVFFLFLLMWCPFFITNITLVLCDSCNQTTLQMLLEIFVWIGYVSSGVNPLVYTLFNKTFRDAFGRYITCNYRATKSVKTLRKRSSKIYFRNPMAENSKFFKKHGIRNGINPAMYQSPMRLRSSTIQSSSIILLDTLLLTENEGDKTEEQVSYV

Compound | Ki (5-HT2B) | EC50 (5-HT1A) | EC50 (M5) | EC50 (M1) | Emax (CHRM1 [1]; [7]) | Emax (CHRM3 [2]; [7]) | Emax (CHRM5 [3]; [7]) | Emax (CHRM1 [4]; [7]) | Emax (CHRM3 [5]; [7]) | Emax (CHRM4; [7]) | Emax (CHRM5 [6]; [7]) | Emax (CHRM1 [1]; HEK293, read-out: Xanomeline) | Emax (CHRM3 [2]; HEK293, read-out: Xanomeline) | Emax (CHRM5 [3]; HEK293, read-out: Xanomeline) | Emax (CHRM1 [4]; HEK293, read-out: Xanomeline) | Emax (CHRM3 [5]; HEK293, read-out: Xanomeline) | Emax (CHRM4; HEK293, read-out: Xanomeline) | Emax (CHRM5 [6]; HEK293, read-out: Xanomeline)
CCCCCCOc1nsnc1C1=CCCNC1 [N-desmethylxanomeline] | 15.8 nM | full or partial agonists at 5-HT1D and 5-HT1A in a transducer-dependent fashion | differential activation of M1-M5 muscarinic receptor transducers | differential activation of M1-M5 muscarinic receptor transducers | 24.3% | 39% | 31.9% | 71.3% | 32.8% | 20.5% | 16.9% |  |  |  |  |  |  | 
CCCCCCOc1nsnc1C1=CCCN(C)C1 [Xanomeline] | 39.8 nM | full or partial agonists at 5-HT1D and 5-HT1A in a transducer-dependent fashion | differential activation of M1-M5 muscarinic receptor transducers | xanomeline being more potent and efficacious than carbachol at M1 and M4 muscarinic receptors |  |  |  |  |  |  |  | 25.6% | 41% | 35.4% | 73.2% | 21.7% | 29.1% | 27.2%
